The nature of series [1]: Interaction of extractants with sodium (organic/aqueous phase concentration). The series is classed as physicochemical. The method, then:
The characteristics of the extractants according to the invention in the process of extraction of sodium from acidic aqueous solutions of high-level waste were determined. For this purpose, the concentration of sodium in the organic and aqueous phases containing extractants based on DTBDB18C6 or DCH18C6 or DB21C7 in a concentration about of 0.05 mol/l in fluoroheptanol n3 were analyzed.

A short description of series [2]: Distribution ratio of strontium extracted in organic solutions of crown ethers (Table 1). The series is classed as physicochemical. Particulars: Sr and Cs 1 g/l, nitric acid about 3.0 mol/l. Here is the method:
(§1) Study was carried out for determining the distribution ratios of radionuclides, for example, strontium or cesium to be extracted by the extractants according to the invention containing various crown ethers as a complexing agent: bis(tert-butylbenzo)-18-crown-6 (subsequently referred to as DTBDB18C6), di-isooctylbenzo-18-crown-6 (subsequently referred to as DIODB18C6), bis(tert-butylcyclohexane-18-crown-6 (subsequently referred to as DTBDCH18C6), di-isooxyldicyclohexane-18-crown-6 (subsequently referred to as DIODCH18C6), bicyclohexane-18-crown-6 (subsequently referred to as DCH18C6) or dibenzo-21-crown-7 (subsequently referred to as DB21C7), in an organic solvent according to the invention: polyfluorinated telomeric alcohol 1,1,7-trihydrododecafluoroheptanol-1 (subsequently referred to as fluoroheptanol n3).
(§2) For comparison, the distribution ratios of strontium and cesium were determined using extractants containing similar crown ethers in another organic solvent (decane).
(§3) Taken for the tests were experimental aqueous nitrate solutions containing strontium and cesium in a concentration of 1 g/l with a content of nitric acid of about 3.0 mol/l.

Series [3] can be described thus: Distribution ratio of cesium extracted in organic solutions of crown ethers (Table 1). The series is classed as physicochemical. Conditions: Sr and Cs 1 g/l, nitric acid about 3.0 mol/l. Here is the method:
as §1, §2, §3

A short description of series [4]: Influence of sodium concentration on extraction of cesium. Conditions: Cs 1 g/l, nitric acid about 3.0 mol/l. The series is classed as physicochemical. The method, then: Extraction of cesium was made involving starting solutions containing 1 g/l of cesium in nitric acid having concentration about of 3.0 mol/l at different concentration of sodium. The solutions were treated with the extractants according to the invention containing crown ether DTBDB18C6 in a concentration about of 0.1 mol/l in fluoroheptanol n3.

Series [5] can be described thus: Influence of nitric acid concentration on cesium extraction from solution No.1. The series is classed as physicochemical. Conditions: solution No.1. The source says: The dependence of extraction of cesium by organic solutions DTBDB18C6 in fluoropentanol n3 and DB21C7 in Fluoroheptanol n3 at a concentration of nitric acid in a starting solution was studied. Solution No.1 whose composition is listed in Table 2 was used as a starting solution.

The nature of series [6]: Influence of nitric acid concentration on extraction of sodium. Conditions: crown ether about 0.1 mol/l in Fluoroheptanol n3. The series is classed as physicochemical. Here is the method:
Selected for study were extractants containing crown ethers: DB18C6, DTBDB18C6, DCH18C6 or DB21C7 in a concentration of about 0.1 mol/l in Fluoroheptanol n3. Used as experimental solutions were aqueous solutions of sodium nitrate whose concentration was determined using radiometric techniques on previously added aliquot of a sodium-22 isotope.

The conditions of series [7]: as described in US patent 4749518; cited from earlier work.
The conditions of series [8]: as described in US patent 4749518; cited from earlier work. This is another data set of the same source.
The conditions of series [9]: as described in US patent 4749518; cited from earlier work. This is another data set of the same source.
For series [10] the following is noted: as described in US patent 4749518; cited from earlier work. This is another data set of the same source.
A short description of series [11]: Radiation resistance of the extractants (gamma irradiation). Conditions: for Distribution ratio DMe after irradiation / Distribution ratio after irradiation, % of original: dose 100.0 kGr (10^7 rad); for Usefulness of extractant after irradiation: dose 285.3 kGr. The series is classed as physicochemical. The source says: The radiation resistance of the extractants according to the invention used for extraction radionuclides of strontium or cesium was studied. For this purpose, reaction mixtures consisting of biphase water-organic systems containing extractants based on crown ethers DCH18C6 or DB21C7 in Fluoroheptanol n3 and aqueous nitrate waste solutions, and, for comparison, reaction mixtures containing extractants based on crown ethers Crown XVI or Crown XVII with a cation exchanger—dinanylnaphthalene of sulfonic acids in a matrix solution comprising tributyl phosphate and kerosene were irradiated with gamma-rays […] in a temperature-controlled cell of stainless steel with continuous agitation by bubbling. The maximum integrated radiation dose was equal to 285.3 kGr. The extractant samples were tested and the extraction characteristics were measured before and after the irradiation to determine a decrease of the distribution ratio DMe due to the radiological destruction of extractant components.

The conditions of series [12]: as described in US patent 4749518; cited from earlier work. The source holds these as a separate data set.
The conditions of series [13]: as described in US patent 4749518; with dinanylnaphthalene sulfonic acid in tributyl phosphate and kerosene; cited from earlier work.
The conditions of series [14]: as described in US patent 4749518; cited from earlier work. This is another data set of the same source.
For series [15] the following is noted: as described in US patent 4749518; cited from earlier work. The source holds these as a separate data set.
The conditions of series [16]: as described in US patent 4749518; cited from earlier work. This is another data set of the same source.
[17] abbreviates: crown ether 0.1 mole/l in Fluoroheptanol n3.
Where [18] appears, read: crown ether 0.1 mole/l in Decane.

A value given as a limit tells only on which side of the number the result lay.

As to `CC(C)(C)c1ccc2c(c1)OCCOCCOc1ccc(C(C)(C)C)cc1OCCOCCO2` [DTBDB18C6, bis(tert-butylbenzo)-18-crown-6], the “Sodium concentration in the organic phase” value in series [1] (sodium in the aqueous phase 0.01 mol/l, crown ether about 0.05 mol/l in fluoroheptanol n3) is 0 mol/L; in series [1] (sodium in the aqueous phase 0.1 mol/l, crown ether about 0.05 mol/l), 0.035 mol/L; in [1] (sodium in the aqueous phase 0.2 mol/l, crown ether about 0.05 mol/l), 0.07 mol/L; in series [1] (sodium in the aqueous phase 0.4 mol/l, crown ether about 0.05 mol/l), 0.14 mol/L. Moreover, in [2] (setting [17]), the “Distribution ratio Strontium” value is 0.11. Further, in [3] (setting [17]), the “Distribution ratio Cesium” value is reported as 15.45. Further, the Cesium distribution ratio worked out at 16.0 in series [4] (sodium nitrate 0 mole/l, crown ether about 0.1 mol/l in fluoroheptanol n3); 9.0 in series [4] (sodium nitrate 0.02 mole/l); 9.1 in series [4] (sodium nitrate 0.03 mole/l); 9.3 in [4] (sodium nitrate 0.04 mole/l); 3.0 in [4] (sodium nitrate 0.20 mole/l). In addition, the “Distribution ratios of cesium” value is on record as 2.5 in series [5] (nitric acid 0 mol/l, Fluoroheptanol n3); 7.1 in series [5] (nitric acid 0.1 mol/l); 12.8 in series [5] (nitric acid 0.5 mol/l); 12.3 in series [5] (nitric acid 1.0 mol/l); 10.3 in series [5] (nitric acid 2.0 mol/l); 8.2 in series [5] (nitric acid 3.0 mol/l). Besides, the “Distribution ratios of cesium” value came to 6.0 in series [5] (nitric acid 4.0 mol/l); 4.0 in [5] (nitric acid 5.0 mol/l); 2.7 in series [5] (nitric acid 6.0 mol/l); 1.1 in [5] (nitric acid 7.0 mol/l); 0 in series [5] (nitric acid 8.0 mol/l). The “Distribution ratios of sodium” value in series [6] (nitric acid 0 mol/l) was 0.03; in [6] (nitric acid 0.1 mol/l), 0.04; in series [6] (nitric acid 0.5 mol/l), 0.17; in series [6] (nitric acid 1.0 mol/l) it was 0.27; in [6] (nitric acid 3.0 mol/l) it was 0.55; in series [6] (nitric acid 5.0 mol/l), 0.64.

For `CCCCC(CC)C(O)c1ccc2c(c1)OCCOCCOc1cc(C(O)C(CC)CCCC)ccc1OCCOCCO2` (mixture of isomers) [Crown XVII, bis-4,4′(5′)[1-hydroxy-2-ethylhexyl]benzo-18-crown-6], the “Distribution ratios, Rb” value in [7] was 0.29. In series [8], the “Distribution ratios, Pd” value is listed as 0.22. In addition, in series [9], the “Distribution ratios, Rare-earth” value is on record as 0.17. For the same compound, in series [10], the “Distribution ratios, Cs” value is given as 1.59. In [11] (Cs), the “Distribution ratio before irradiation” value worked out at 1.59; the “Distribution ratio DMe after irradiation” value came to 1.04; the “Distribution ratio after irradiation, % of original” value came to 65.41%. Further, in [11] (dose 100 kGr), the “Reduction of the distribution ratio of cesium after irradiation” value was 35%. Also, the “Usefulness of extractant after irradiation” value in series [11] was “practically useless”. Besides, the “Distribution ratios, Sr” value in [12] was 0.06. In addition, in series [13], the “Distribution ratios, Ba” value was 0.03. The “Distribution ratios, Zr” value in series [14] is on record as 2.09. For the same compound, in [15], the “Distribution ratios, Ru” value is reported as 0.31. The “Distribution ratios, Y” value in [16] is listed as 0.02.

Regarding di-isooctylbenzo-18-crown-6 [DIODB18C6], the “Distribution ratio Strontium” value in series [2] (setting [18]) is listed as 0.05; in series [2] (setting [17]) it was 0.06. Also, the “Distribution ratio Cesium” value in [3] (setting [18]) was 0.004; in series [3] (setting [17]) it was 4.23.

As to “di-isooxyldicyclohexane-18-crown-6 [DIODCH18C6]”, the “Distribution ratio Strontium” value is listed as less than 0.001 in [2] (setting [18]) and 0.106 in [2] (setting [17]). Besides, the “Distribution ratio Cesium” value in series [3] (setting [18]) stood at 0.004.

On to `CC(C)(C)C1CCC2OCCOCCOC3CC(C(C)(C)C)CCC3OCCOCCOC2C1` (centres unmarked) [DTBDCH18C6], for which the “Distribution ratio Strontium” value in series [2] (setting [18]) is listed as less than 0.001; in series [2] (setting [17]), 1.91.

On to `CCCCCCC(O)C1CCC2OCCOCCOC3CCC(C(O)CCCCCC)CC3OCCOCCOC2C1` (mixture of isomers) [Crown XVI, bis-4,4′(5′)[1-hydroxyheptyl]cyclohexo-18-crown-6], for which the “Distribution ratios, Rb” value in series [7] is recorded as 0.11. The “Distribution ratios, Pd” value in [8] is on record as 0.05. Besides, in series [9], the “Distribution ratios, Rare-earth” value is reported as 0.06. In series [10], the “Distribution ratios, Cs” value is 0.03. Moreover, in series [11] (Sr), the “Distribution ratio before irradiation” value was found to be 1.98; the “Distribution ratio DMe after irradiation” value is listed as 1.56; the “Distribution ratio after irradiation, % of original” value is recorded as 78.78%. In series [11] (dose 100 kGr), the “Loss of the distribution ratio of strontium after irradiation” value is listed as “about 21%”. Further, in series [11], the “Usefulness of extractant after irradiation” value is recorded as “practically useless”. Also, the “Distribution ratios, Sr” value in series [12] was 3.84. Besides, in series [13], the “Distribution ratios, Ba” value is on record as 4.2. For the same compound, in [14], the “Distribution ratios, Zr” value is reported as 1.41. Besides, the “Distribution ratios, Ru” value in series [15] is 0.26. Besides, the “Distribution ratios, Y” value in [16] is 0.02.

Consider `c1ccc2c(c1)OCCOCCOc1ccccc1OCCOCCO2` [DB18C6, dibenzo-18-crown-6], for which the “Distribution ratios of sodium” value is 0.025 in series [6] (nitric acid 0 mol/l); 0.04 in [6] (nitric acid 0.1 mol/l); 0.15 in series [6] (nitric acid 0.5 mol/l); 0.21 in series [6] (nitric acid 1.0 mol/l); 0.49 in series [6] (nitric acid 3.0 mol/l); 0.67 in series [6] (nitric acid 5.0 mol/l).

Source of the values: patent publication US20080014133A1, “Extraction Of Radionuclides By Crown Ether-Containing Extractants” (priority 2004, published 2008).
